Key:
Format in all cases: cell-based
human TRPML1 = human TRPML1 (Homo sapiens, UniProt Q9GZU1); assay: Fluorescent TRPML1 assay (Fluo4-AM calcium fluorescence, HEK-293 Trex cells)
How it was run: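 Agonist EC50 from non-linear regression of percent activity versus on-plate controls, calcium signal read at 480/540 nm. Compounds spanned 6 nM–20 μM final in triplicate. Cells: doxycycline-induced HEK-293 Trex with cell-surface human TRPML1 mutant, Fluo4-AM loaded, in Ringer's containing 10 mM calcium.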

TRPML2 = biological target: T1, TRPML2 (Homo sapiens, UniProt Q8IZK6); assay: Fluorescent TRPML2 assay (as for TRPML1)
T1 construct: expressed in transfected cells
T1 sequence (Q8IZK6 1-566): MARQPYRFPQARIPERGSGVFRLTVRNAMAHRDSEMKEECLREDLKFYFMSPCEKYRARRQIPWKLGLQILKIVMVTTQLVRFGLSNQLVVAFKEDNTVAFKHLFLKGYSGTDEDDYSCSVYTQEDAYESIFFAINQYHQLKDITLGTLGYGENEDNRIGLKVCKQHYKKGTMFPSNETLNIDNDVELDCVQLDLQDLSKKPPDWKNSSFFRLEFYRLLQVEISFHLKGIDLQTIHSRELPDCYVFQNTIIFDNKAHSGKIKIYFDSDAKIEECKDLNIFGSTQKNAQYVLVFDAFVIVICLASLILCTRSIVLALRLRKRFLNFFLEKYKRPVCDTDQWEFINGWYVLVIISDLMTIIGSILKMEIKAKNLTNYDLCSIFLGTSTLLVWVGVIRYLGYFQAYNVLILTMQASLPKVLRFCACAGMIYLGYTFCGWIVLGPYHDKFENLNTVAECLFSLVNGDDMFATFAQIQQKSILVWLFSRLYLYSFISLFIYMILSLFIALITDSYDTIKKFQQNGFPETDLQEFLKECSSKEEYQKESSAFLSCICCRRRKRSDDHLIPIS
Procedure: HEK-293 Trex cells were stably transfected with a construct consisting of the human coding sequence for TRPML1 cloned into the tet-inducible plasmid pCDNA5 T/O. Mutations were introduced into the TRPML1 sequence to facilitate expression on the cell surface (Silvia Vergarajauregui, Rosa Puertollano Traffic. 2006 March; 7 (3): 337-353). Briefly, the cells are cultured in 150 mm round tissue culture dishes containing 20 mL of media. The day before the assay the cells are rinsed with DPBS —Ca—Mg and then treated briefly with Trypsin-EDTA. The Trypsin-EDTA is diluted with growth media, and cells are counted. 38×10^6 cells are re-plated into 150 mm round tissue culture dishes in media containing 0.5 ug/mL doxycycline to induce expression of hTRPML1.
The day of the experiment cells are lifted from the plates as above and collected by centrifugation. The cells are then suspended in dye loading buffer consisting of Ringer's solution supplemented with 0.1% Pluronic Acid and 1 micromolar Fluo4-AM dye. Cells are loaded for ˜60 minutes in the dark with occasional mixing. The cells are collected by centrifugation, the loading media aspirated, and the cells resuspended in 25 mL Ringer's solution and incubated ˜60 minutes in the dark. The cells are again collected by centrifugation, rinsed in Ringer's Solution and resuspended to 0.2×10^6 cells/mL in modified Ringer's solution containing 10 mM calcium.
Compounds are dissolved to a concentration of 10 millimolar with DMSO. Compound plates are created by dispensing compounds into 384 well black wall clear bottom plates (Greiner 781091). Positive and negative controls are included on each plate. Typically, different amounts of each compound are tested ranging from 100 nanoMoles (20 micromolar final concentration) decreasing in half-log steps to 31 picoMoles (6 nanomolar final concentration). Each concentration is typically tested in triplicate.
50 microliters of dye-loaded cells are dispensed into each well of the compound assay plate created above. The fluorescence in each well is then determined with an excitation wavelength of 480 nm and an emission wavelength of 540 nm using either a Molecular Devices SpectraMax multimode plate reader or a Hamamatsu FDSS/uCell plate imager.
The resulting fluorescence for each well is exported as an ascii file and loaded into our LIMS for analysis. The percent activity of each compound at each concentration is determined by comparison to the positive and negative control wells included in each plate.
Assays for TRPML2 and TRPML3 were performed as above for TRPML1, by substituting the appropriate TRPML2 or TRPML3 subtype for the TRPML1.
EC50 values were calculated using a non-linear regression of Prism. In the table, “A” indicates an EC50 of less than 100 nM, “B” indicates an EC50 range from 100 nM to 500 nM; “C” indicates an EC50 range from 500 nM to 2 μM; and “D” indicates an EC50 greater than 2 μM.

TRPML3 = biological target: T2, TRPML3 (Homo sapiens, UniProt Q8TDD5); assay: Fluorescent TRPML3 assay (as for TRPML1)
T2 construct: expressed in transfected cells
T2 sequence (Q8TDD5 1-553): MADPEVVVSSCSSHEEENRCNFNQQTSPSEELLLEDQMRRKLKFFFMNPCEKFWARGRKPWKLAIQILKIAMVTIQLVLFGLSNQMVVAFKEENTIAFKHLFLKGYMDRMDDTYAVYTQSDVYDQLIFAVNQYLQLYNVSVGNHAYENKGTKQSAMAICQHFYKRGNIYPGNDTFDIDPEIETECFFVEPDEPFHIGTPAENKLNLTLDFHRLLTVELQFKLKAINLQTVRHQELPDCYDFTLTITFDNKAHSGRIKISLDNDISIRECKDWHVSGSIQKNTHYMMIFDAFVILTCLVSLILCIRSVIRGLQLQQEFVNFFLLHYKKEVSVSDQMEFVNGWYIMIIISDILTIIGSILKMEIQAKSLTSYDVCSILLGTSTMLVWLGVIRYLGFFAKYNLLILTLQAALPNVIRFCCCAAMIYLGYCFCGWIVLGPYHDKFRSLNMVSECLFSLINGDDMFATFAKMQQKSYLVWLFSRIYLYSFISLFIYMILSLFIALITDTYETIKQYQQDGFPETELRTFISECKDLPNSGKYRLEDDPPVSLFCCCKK
How it was run: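 EC50 came from non-linear regression of percent activity, set against on-plate positive and negative controls, using Fluo4 fluorescence (ex 480, em 540 nm). Compounds ran in triplicate from 6 nM to 20 µM final in half-log steps. Doxycycline-induced (0.5 ug/mL) HEK-293 Trex cells expressing surface-directed mutant channel were in 10 mM calcium Ringer's.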

human TRPML1, sequence (Q9GZU1 whole entry L15A/L16A/L577A/L578A, form open): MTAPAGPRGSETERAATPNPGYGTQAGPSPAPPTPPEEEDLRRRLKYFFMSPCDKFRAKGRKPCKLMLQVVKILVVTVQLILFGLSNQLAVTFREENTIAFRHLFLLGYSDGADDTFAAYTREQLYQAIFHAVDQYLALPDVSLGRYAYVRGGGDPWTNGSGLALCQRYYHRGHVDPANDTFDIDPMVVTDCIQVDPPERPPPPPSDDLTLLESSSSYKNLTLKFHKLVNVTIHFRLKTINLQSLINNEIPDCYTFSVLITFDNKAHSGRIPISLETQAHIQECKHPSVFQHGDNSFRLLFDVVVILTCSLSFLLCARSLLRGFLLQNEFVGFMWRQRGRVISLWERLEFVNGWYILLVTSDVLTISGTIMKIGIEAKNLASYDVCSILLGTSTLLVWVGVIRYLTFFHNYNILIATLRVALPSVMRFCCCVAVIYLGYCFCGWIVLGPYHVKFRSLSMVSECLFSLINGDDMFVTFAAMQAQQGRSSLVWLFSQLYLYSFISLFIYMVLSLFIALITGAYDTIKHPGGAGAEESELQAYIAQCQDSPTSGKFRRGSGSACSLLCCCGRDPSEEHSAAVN

SMILES	EC50 (human TRPML1; Table 3, compounds 201-283) [nM]	EC50 (TRPML2; Table 3, compounds 201-283) [nM]	EC50 (TRPML3; Table 3, compounds 201-283) [nM]	EC50 (human TRPML1; Table 3, compounds 101-177) [nM]	EC50 (TRPML2; Table 3, compounds 101-177) [nM]	EC50 (TRPML3; Table 3, compounds 101-177) [nM]
Cc1cc(C#N)cc(-n2cc(-c3ccccc3F)c3c(N4CCN(C(=O)C(C)C)C[C@@H]4C)ncnc32)n1 [Compound 143, (S)-2-(5-(2-fluorophenyl)-4-(4-isobutyryl-2-methylpiperazin-1-yl)-7H-pyrrolo[2,3-d]pyrimidin-7-yl)-6-methylisonicotinonitrile]	–	–	–	100 to 500	100 to 500	100 to 500
COC(C)(C)C(=O)N1CCN(c2ncnc3c2c(-c2ccccc2F)cn3-c2cc(C#N)ccn2)C[C@H]1C [Compound 266, (R)-2-(5-(2-fluorophenyl)-4-(4-(2-methoxy-2-methylpropanoyl)-3-methylpiperazin-1-yl)-7H-pyrrolo[2,3-d]pyrimidin-7-yl)isonicotinonitrile]	< 100	100 to 500	< 100	–	–	–
C[C@H]1CN(C(=O)CC(C)(C)C(F)(F)F)CCN1c1ncnc2c1c(-c1ccccc1F)cn2-c1cc(C#N)ccn1 [Compound 140, (S)-2-(5-(2-fluorophenyl)-4-(2-methyl-4-(4,4,4-trifluoro-3,3-dimethylbutanoyl)piperazin-1-yl)-7H-pyrrolo[2,3-d]pyrimidin-7-yl)isonicotinonitrile]	–	–	–	< 100	< 100	< 100
COC1(C(=O)N2C[C@H](C)N(c3ncnc4c3c(-c3ccccc3F)cn4-c3cc(C#N)ccn3)C[C@H]2C)CC1 [Compound 267, 2-(5-(2-fluorophenyl)-4-((2S,5R)-4-(1-methoxycyclopropane-1-carbonyl)-2,5-dimethylpiperazin-1-yl)-7H-pyrrolo [2,3-d]pyrimidin-7-yl)isonicotinonitrile]	< 100	100 to 500	< 100	–	–	–
C[C@@H]1CN(c2ncnc3c2c(C2CCC2)cn3-c2cc(C#N)ccn2)[C@@H](C)CN1C(=O)CC(C)(C)C(F)(F)F [Compound 239, 2-(5-cyclobutyl-4-((2S,5R)-2,5-dimethyl-4-(4,4,4-trifluoro-3,3-dimethylbutanoyl)piperazin-1-yl)-7H-pyrrolo[2,3-d]pyrimidin-7-yl)isonicotinonitrile]	< 100	500 to 2000	< 100	–	–	–
CC(C)C(=O)N1C[C@H](C)N(c2ncnc3c2c(-c2ccccc2F)cn3-c2cc(C#N)ccn2)C[C@H]1C [Compound 139, 2-(5-(2-fluorophenyl)-4-((2S,5R)-4-isobutyryl-2,5-dimethylpiperazin-1-yl)-7H-pyrrolo[2,3-d]pyrimidin-7-yl)isonicotinonitrile]	–	–	–	< 100	< 100	< 100
C[C@@H]1CN(c2ncnc3c2c(N2CCC2)cn3-c2cc(C#N)ccn2)CCN1C(=O)C1(F)CC1 [Compound 270, (R)-2-(5-(azetidin-1-yl)-4-(4-(1-fluorocyclopropane-1-carbonyl)-3-methylpiperazin-1-yl)-7H-pyrrolo[2,3-d]pyrimidin-7-yl)isonicotinonitrile]	< 100	100 to 500	< 100	–	–	–
CC(C)(O)C(=O)N1CCN(c2ncnc3c2c(-c2ccccc2F)cn3-c2cc(C#N)ccn2)C(C)(C)C1 [Compound 170, 2-(5-(2-fluorophenyl)-4-(4-(2-hydroxy-2-methylpropanoyl)-2,2-dimethylpiperazin-1-yl)-7H-pyrrolo[2,3-d]pyrimidin-7-yl)isonicotinonitrile]	–	–	–	< 100	100 to 500	< 100

Second part, the molecule after the results:

EC50 (human TRPML1; Table 3, compounds 201-283) [nM]	EC50 (TRPML2; Table 3, compounds 201-283) [nM]	EC50 (TRPML3; Table 3, compounds 201-283) [nM]	EC50 (human TRPML1; Table 3, compounds 101-177) [nM]	EC50 (TRPML2; Table 3, compounds 101-177) [nM]	EC50 (TRPML3; Table 3, compounds 101-177) [nM]	SMILES
100 to 500	500 to 2000	500 to 2000	–	–	–	C[C@@H]1CN(c2ncnc3c2c(C2CCC2)cn3-c2cccc(C(F)(F)F)c2)[C@@H](C)CN1C(=O)CC(C)(C)C(F)(F)F [Compound 262, 1-((2R,5S)-4-(5-cyclobutyl-7-(3-(trifluoromethyl)phenyl)-7H-pyrrolo[2,3-d]pyrimidin-4-yl)-2,5-dimethylpiperazin-1-yl)-4,4,4-trifluoro-3,3-dimethylbutan-1-one]
< 100	> 2000	< 100	–	–	–	C[C@@H]1CN(c2nccc3c2c(C2CC2)cn3-c2cccc(F)c2)[C@@H](C)CN1C(=O)C(C)(C)C [Compound 229, 1-((2R,5S)-4-(3-cyclopropyl-1-(3-fluorophenyl)-1H-pyrrolo[3,2-c]pyridin-4-yl)-2,5-dimethylpiperazin-1-yl)-2,2-dimethylpropan-1-one]
< 100	> 2000	100 to 500	–	–	–	COC(C)(C)C(=O)N1C[C@H](C)N(c2ncnc3c2c(C(F)(F)F)cn3-c2cccc(F)c2)C[C@H]1C [Compound 223, 1-((2R,5S)-4-(7-(3-fluorophenyl)-5-(trifluoromethyl)-7H-pyrrolo[2,3-d]pyrimidin-4-yl)-2,5-dimethylpiperazin-1-yl)-2-methoxy-2-methylpropan-1-one]
< 100	100 to 500	< 100	–	–	–	C[C@@H]1CN(c2ncnc3c2c(N2CCC2)cn3-c2cccc(Cl)c2)[C@@H](C)CN1C(=O)C(C)(C)C [Compound 220, 1-((2R,5S)-4-(5-(azetidin-1-yl)-7-(3-chlorophenyl)-7H-pyrrolo[2,3-d]pyrimidin-4-yl)-2,5-dimethylpiperazin-1-yl)-2,2-dimethylpropan-1-one]
< 100	> 2000	500 to 2000	–	–	–	C[C@@H]1CN(c2ncnc3c2c(C2CC2)cn3-c2cccc(F)c2)[C@@H](C)CN1C(=O)C(C)(C)C [Compound 214, 1-((2R,5S)-4-(5-cyclopropyl-7-(3-fluorophenyl)-7H-pyrrolo[2,3-d]pyrimidin-4-yl)-2,5-dimethylpiperazin-1-yl)-2,2-dimethylpropan-1-one]
< 100	100 to 500	< 100	–	–	–	C[C@@H]1CN(c2ncnc3c2c(C2CC2)cn3-c2cccc(Cl)c2)[C@@H](C)CN1C(=O)C(C)(C)C [Compound 206, 1-((2R,5S)-4-(7-(3-chlorophenyl)-5-cyclopropyl-7H-pyrrolo[2,3-d]pyrimidin-4-yl)-2,5-dimethylpiperazin-1-yl)-2,2-dimethylpropan-1-one]
